Drawing on patent publication US7820623B2 (priority 2006, dated 2010), this text covers IC50 for ten compounds.

Read-outs that look alike come from different tables or passages of the source. Bridge positions count the residues as written; N and C are the ends. Peptide text beside a SMILES is read from it.

The subject of test [1] is thapsigargin-induced IFN-g production in human whole blood. It is filed as cell-based.
The subject of test [2] is thapsigargin-induced IL-2 production in human whole blood.
[3] abbreviates: read-out: Analogue Activity (IC50) WB/IFNg.
Where [4] appears, read: read-out: Analogue Activity (IC50) WB/IL-2.

With `CC[C@H](C)[C@@H]1NC(=O)[C@H](CCCCN)NC(=O)[C@@H](NC(=O)[C@H](CCCCN)NC(=O)[C@@H](NC(=O)[C@H](CC(N)=O)NC(=O)[C@@H](NC(=O)[C@@H](NC(=O)[C@@H](NC(=O)CN)C(C)C)[C@@H](C)CC)[C@@H](C)CC)C(C)C)CSSC[C@@H]2NC(=O)[C@H](CCCCN)NC(=O)CNC(=O)[C@H](Cc3ccccc3)NC(=O)[C@H](CCCNC(=N)N)NC(=O)[C@H](CCSC)NC(=O)CNC(=O)[C@H](C)NC(=O)[C@H](CCCCN)NC(=O)[C@H](CCCCN)NC(=O)[C@@H]3CSSC[C@@H](C(=O)N[C@H](C(=O)N4CCC[C@H]4C(=O)N[C@@H](CCCCN)C(=O)O)[C@@H](C)O)NC(=O)[C@H](Cc4c[nH]cn4)NC(=O)[C@H](CSSC[C@H](NC(=O)[C@H](CCC(N)=O)NC(=O)[C@H](CCCNC(=N)N)NC(=O)[C@H](CO)NC1=O)C(=O)N[C@@H](CC(C)C)C(=O)N[C@@H](CCC(=O)O)C(=O)N1CCC[C@H]1C(=O)N3)NC(=O)[C@H](CCC(=O)O)NC(=O)CNC(=O)[C@H](CC(N)=O)NC(=O)[C@H](CCSC)NC2=O` [K32E] (H-GVIINVKCKISRQCLEPCKKAGMRFGKCMNGECHCTPK-OH; disulfide 8-28, 14-33, 18-35), the IC50 is 0.063 nM in test [1] (setting [3]) and 0.062 nM in test [2] (setting [4]).
For `CC[C@H](C)[C@@H]1NC(=O)[C@H](CCCCN)NC(=O)[C@@H](NC(=O)[C@H](CCCCN)NC(=O)[C@@H](NC(=O)[C@H](CC(N)=O)NC(=O)[C@@H](NC(=O)[C@@H](NC(=O)[C@@H](NC(=O)CN)C(C)C)[C@@H](C)CC)[C@@H](C)CC)C(C)C)CSSC[C@@H]2NC(=O)[C@H](CCCCN)NC(=O)CNC(=O)[C@H](Cc3ccccc3)NC(=O)[C@H](CCCNC(=N)N)NC(=O)[C@H](CCSC)NC(=O)CNC(=O)[C@H](C)NC(=O)[C@H](CCCCN)NC(=O)[C@H](CCCCN)NC(=O)[C@@H]3CSSC[C@@H](C(=O)N[C@H](C(=O)N[C@@H](CCCNC(=N)N)C(=O)N[C@@H](CCCCN)C(=O)O)[C@@H](C)O)NC(=O)[C@H](Cc4c[nH]cn4)NC(=O)[C@H](CSSC[C@H](NC(=O)[C@H](CCC(N)=O)NC(=O)[C@H](CCCNC(=N)N)NC(=O)[C@H](CO)NC1=O)C(=O)N[C@@H](CC(C)C)C(=O)N[C@@H](CCC(=O)O)C(=O)N1CCC[C@H]1C(=O)N3)NC(=O)[C@H](CCCCN)NC(=O)CNC(=O)[C@H](CC(N)=O)NC(=O)[C@H](CCSC)NC2=O` [P37R] (H-GVIINVKCKISRQCLEPCKKAGMRFGKCMNGKCHCTRK-OH; disulfide 8-28, 14-33, 18-35), the results for the IC50 in test [1] (setting [3]) and in test [2] (setting [4]) were 0.253 nM and 0.229 nM, respectively.
Turning to `CC[C@H](C)[C@@H]1NC(=O)[C@H](CCCCN)NC(=O)[C@@H](NC(=O)[C@H](CCCCN)NC(=O)[C@@H](NC(=O)[C@H](CC(N)=O)NC(=O)[C@@H](NC(=O)[C@@H](NC(=O)[C@@H](NC(=O)CN)C(C)C)[C@@H](C)CC)[C@@H](C)CC)C(C)C)CSSC[C@@H]2NC(=O)[C@H](CCCCN)NC(=O)CNC(=O)[C@H](Cc3ccccc3)NC(=O)[C@H](CCCNC(=N)N)NC(=O)[C@H](CCSC)NC(=O)CNC(=O)[C@H](C)NC(=O)[C@H](CCCCN)NC(=O)[C@H](CCCCN)NC(=O)[C@@H]3CSSC[C@@H](C(=O)N[C@H](C(=O)N4CCC[C@H]4C(=O)N[C@@H](CCCCN)C(=O)O)[C@@H](C)O)NC(=O)[C@H](Cc4c[nH]cn4)NC(=O)[C@H](CSSC[C@H](NC(=O)[C@H](CCC(N)=O)NC(=O)[C@H](CCCNC(=N)N)NC(=O)[C@H](CO)NC1=O)C(=O)N[C@@H](CCCNC(=N)N)C(=O)N[C@@H](CCC(=O)O)C(=O)N1CCC[C@H]1C(=O)N3)NC(=O)[C@H](CCCCN)NC(=O)CNC(=O)[C@H](CC(N)=O)NC(=O)[C@H](CCSC)NC2=O` [L15R] (H-GVIINVKCKISRQCREPCKKAGMRFGKCMNGKCHCTPK-OH; disulfide 8-28, 14-33, 18-35), the IC50 stood at 0.116 nM in test [1] (setting [3]) and 0.093 nM in test [2] (setting [4]).
On to “AVIINVKCKISRQCLEPCKKAGMRFGKCMNGKCHCTPK [Ala-1 (SEQ ID No: 1400)]”, for which the IC50 stood at 0.119 nM in test [1] (read-out: Average IC50 IFNg) and 0.122 nM in test [2] (read-out: Average IC50 IL-2).
Take `CC[C@H](C)[C@@H]1NC(=O)[C@H](CCCCN)NC(=O)[C@@H](NC(=O)[C@H](CCCCN)NC(=O)[C@@H](NC(=O)[C@H](CC(N)=O)NC(=O)[C@@H](NC(=O)[C@@H](NC(=O)[C@@H](NC(=O)CN)C(C)C)[C@@H](C)CC)[C@@H](C)CC)C(C)C)CSSC[C@@H]2NC(=O)[C@H](CCCCN)NC(=O)CNC(=O)[C@H](Cc3ccccc3)NC(=O)[C@H](CCCNC(=N)N)NC(=O)[C@H](CCSC)NC(=O)CNC(=O)[C@H](CCC(=O)O)NC(=O)[C@H](CCCCN)NC(=O)[C@H](CCCCN)NC(=O)[C@@H]3CSSC[C@@H](C(=O)N[C@H](C(=O)N4CCC[C@H]4C(=O)N[C@@H](CCCCN)C(=O)O)[C@@H](C)O)NC(=O)[C@H](Cc4c[nH]cn4)NC(=O)[C@H](CSSC[C@H](NC(=O)[C@H](CCC(N)=O)NC(=O)[C@H](CCCNC(=N)N)NC(=O)[C@H](CO)NC1=O)C(=O)N[C@@H](CC(C)C)C(=O)N[C@@H](CCC(=O)O)C(=O)N1CCC[C@H]1C(=O)N3)NC(=O)[C@H](CCCCN)NC(=O)CNC(=O)[C@H](CC(N)=O)NC(=O)[C@H](CCSC)NC2=O` [A21E] (H-GVIINVKCKISRQCLEPCKKEGMRFGKCMNGKCHCTPK-OH; disulfide 8-28, 14-33, 18-35): the figures for the IC50 in test [1] (setting [3]) and in test [2] (setting [4]) were 0.138 nM and 0.117 nM, respectively.
Take `CC[C@H](C)[C@@H]1NC(=O)[C@H](CCCCN)NC(=O)[C@@H](NC(=O)[C@H](CCCCN)NC(=O)[C@@H](NC(=O)[C@H](CC(N)=O)NC(=O)[C@@H](NC(=O)[C@@H](NC(=O)[C@@H](NC(=O)CN)C(C)C)[C@@H](C)CC)[C@@H](C)CC)C(C)C)CSSC[C@@H]2NC(=O)[C@H](CCCCN)NC(=O)CNC(=O)[C@H](Cc3ccccc3)NC(=O)[C@H](CCCNC(=N)N)NC(=O)[C@H](CCSC)NC(=O)CNC(=O)[C@H](C)NC(=O)[C@H](CCCCN)NC(=O)[C@H](CCCNC(=N)N)NC(=O)[C@@H]3CSSC[C@@H](C(=O)N[C@H](C(=O)N4CCC[C@H]4C(=O)N[C@@H](CCCCN)C(=O)O)[C@@H](C)O)NC(=O)[C@H](Cc4c[nH]cn4)NC(=O)[C@H](CSSC[C@H](NC(=O)[C@H](CCC(N)=O)NC(=O)[C@H](CCCNC(=N)N)NC(=O)[C@H](CO)NC1=O)C(=O)N[C@@H](CC(C)C)C(=O)N[C@@H](CCC(=O)O)C(=O)N1CCC[C@H]1C(=O)N3)NC(=O)[C@H](CCCCN)NC(=O)CNC(=O)[C@H](CC(N)=O)NC(=O)[C@H](CCSC)NC2=O` [K19R] (H-GVIINVKCKISRQCLEPCRKAGMRFGKCMNGKCHCTPK-OH; disulfide 8-28, 14-33, 18-35): the IC50 in test [1] (setting [3]) is 0.062 nM; in test [2] (setting [4]), 0.044 nM.
For the compound `CC[C@H](C)[C@@H]1NC(=O)[C@H](CCCCN)NC(=O)[C@@H](NC(=O)[C@H](CCC(=O)O)NC(=O)[C@@H](NC(=O)[C@H](CC(N)=O)NC(=O)[C@@H](NC(=O)[C@@H](NC(=O)[C@@H](NC(=O)CN)C(C)C)[C@@H](C)CC)[C@@H](C)CC)C(C)C)CSSC[C@@H]2NC(=O)[C@H](CCCCN)NC(=O)CNC(=O)[C@H](Cc3ccccc3)NC(=O)[C@H](CCCNC(=N)N)NC(=O)[C@H](CCSC)NC(=O)CNC(=O)[C@H](C)NC(=O)[C@H](CCCCN)NC(=O)[C@H](CCCCN)NC(=O)[C@@H]3CSSC[C@@H](C(=O)N[C@H](C(=O)N4CCC[C@H]4C(=O)N[C@@H](CCCCN)C(=O)O)[C@@H](C)O)NC(=O)[C@H](Cc4c[nH]cn4)NC(=O)[C@H](CSSC[C@H](NC(=O)[C@H](CCC(N)=O)NC(=O)[C@H](CCCNC(=N)N)NC(=O)[C@H](CO)NC1=O)C(=O)N[C@@H](CC(C)C)C(=O)N[C@@H](CCC(=O)O)C(=O)N1CCC[C@H]1C(=O)N3)NC(=O)[C@H](CCCCN)NC(=O)CNC(=O)[C@H](CC(N)=O)NC(=O)[C@H](CCSC)NC2=O` [K7E] (H-GVIINVECKISRQCLEPCKKAGMRFGKCMNGKCHCTPK-OH; disulfide 8-28, 14-33, 18-35), the IC50 was determined as 0.068 nM in test [1] (setting [3]) and 0.058 nM in test [2] (setting [4]).
For the compound `CC[C@H](C)[C@@H]1NC(=O)[C@H](CCC(=O)O)NC(=O)[C@@H](NC(=O)[C@H](CCCCN)NC(=O)[C@@H](NC(=O)[C@H](CC(N)=O)NC(=O)[C@@H](NC(=O)[C@@H](NC(=O)[C@@H](NC(=O)CN)C(C)C)[C@@H](C)CC)[C@@H](C)CC)C(C)C)CSSC[C@@H]2NC(=O)[C@H](CCCCN)NC(=O)CNC(=O)[C@H](Cc3ccccc3)NC(=O)[C@H](CCCNC(=N)N)NC(=O)[C@H](CCSC)NC(=O)CNC(=O)[C@H](C)NC(=O)[C@H](CCCCN)NC(=O)[C@H](CCCCN)NC(=O)[C@@H]3CSSC[C@@H](C(=O)N[C@H](C(=O)N4CCC[C@H]4C(=O)N[C@@H](CCCCN)C(=O)O)[C@@H](C)O)NC(=O)[C@H](Cc4c[nH]cn4)NC(=O)[C@H](CSSC[C@H](NC(=O)[C@H](CCC(N)=O)NC(=O)[C@H](CCCNC(=N)N)NC(=O)[C@H](CO)NC1=O)C(=O)N[C@@H](CC(C)C)C(=O)N[C@@H](CCC(=O)O)C(=O)N1CCC[C@H]1C(=O)N3)NC(=O)[C@H](CCCCN)NC(=O)CNC(=O)[C@H](CC(N)=O)NC(=O)[C@H](CCSC)NC2=O` [K9E] (H-GVIINVKCEISRQCLEPCKKAGMRFGKCMNGKCHCTPK-OH; disulfide 8-28, 14-33, 18-35), the IC50 in test [1] (setting [3]) is 0.171 nM; in test [2] (setting [4]), 0.179 nM.
Take “GVIINAKCKISRQCLEPCKKAGMRFGKCMNGKCHCTPK [Ala-6 (SEQ ID No: 1405)]”: the IC50 was found to be 0.0805 nM in test [1] (read-out: Average IC50 IFNg) and 0.0733 nM in test [2] (read-out: Average IC50 IL-2).
Turning to “GVIINVKCKISRQCLEPCKKAGMRFGKCMNGKCACTPK [Ala-34 (SEQ ID No: 1428)]”, the IC50 in test [1] (read-out: Average IC50 IFNg) stood at 0.0573 nM; in test [2] (read-out: Average IC50 IL-2), 0.0725 nM.
